One may read the EC50 as the midpoint of the concentration-response curve. Low values mean greater potency, high ones weaker potency.

Among the data in patent US20250100968A1, “BICYCLIC-HETEROCYCLE DERIVATIVES AND RELATED USES” (CENTESSA PHARMACEUTICALS (UK) LIMITED, priority 2022, published 2025) are EC50 values, retold here.
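Note: agonist activity in CHO cells stably expressing hOX2R, intracellular Ca2+ via Calcium 5 dye fluorescence area over 2 min, buffer-only as 0% and 10 nM orexin A as 100%.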

The assay addresses T1, human orexin type 2 receptor (hOX2R) (Homo sapiens, UniProt O43614).
T1 sequence (O43614 1-444): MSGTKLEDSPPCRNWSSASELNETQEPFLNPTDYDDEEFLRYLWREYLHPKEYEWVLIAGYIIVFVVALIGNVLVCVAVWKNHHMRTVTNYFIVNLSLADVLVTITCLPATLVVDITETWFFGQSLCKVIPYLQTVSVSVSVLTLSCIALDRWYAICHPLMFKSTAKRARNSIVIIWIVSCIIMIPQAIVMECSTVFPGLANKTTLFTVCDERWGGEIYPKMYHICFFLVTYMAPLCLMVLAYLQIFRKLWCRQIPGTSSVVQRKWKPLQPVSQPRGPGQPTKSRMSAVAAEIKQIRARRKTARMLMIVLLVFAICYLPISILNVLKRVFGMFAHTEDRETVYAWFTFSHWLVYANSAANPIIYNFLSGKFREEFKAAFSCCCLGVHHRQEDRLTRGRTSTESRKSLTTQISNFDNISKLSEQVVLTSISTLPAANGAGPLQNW
The experiment in a line: cell-based.
Method: Measurement of orexin type 2 receptor agonist activity. […] After removal of the medium, 50 μl of assay buffer 1 (0.1% bovine serum albumin (Sigma Aldrich), 20 mM HEPES (Molecular Dimensions), 250 mM probenecid (Sigma Aldrich), 1× Calcium 5 dye (Molecular Devices) in Hank's balanced salt solution (Invitrogen)) was added, and the cells were incubated for 60 min under the conditions of 37° C., 5% CO2. A test compound was dissolved in dimethyl sulfoxide (Sigma Aldrich) to 10 mM, and then diluted with assay buffer 2 (20 mM HEPES, Hank's balanced salt solution, 0.1% bovine serum albumin). For the reaction, a test compound solution (10 μl) was added using Fluorescent Imaging Plate Reader TETRA (FLIPR TETRA: manufactured by Molecular Devices), a fluorescence value (excitation wavelength 488 nm, measurement wavelength 570 nm) of each well was measured every one second for 2 min, and the agonist activity was determined using the area of the fluorescence value as an indicator of intracellular Ca^2+ concentration. The agonist activity of the test compound was calculated assuming that the fluorescence value of the well added with only the dilution buffer was 0% and the fluorescence value of the well added with 10 nM human orexin A (Tocris) buffer was 100%.
`O=C([C@@H](O)C1CC1)N1CC2(CC2)[C@H](NS(=O)(=O)CF)[C@@H]1Cc1cccc(-c2cc(F)cc(F)c2)c1F` [compound 3, N-((6S,7S)-5-((S)-2-cyclopropyl-2-hydroxyacetyl)-6-((2,3′,5′-trifluoro-[1,1′-biphenyl]-3-yl)methyl)-5-azaspiro[2.4]heptan-7-yl)-1-fluoromethanesulfonamide] showed a half-maximal effective concentration (EC50) of 10 to 100 nM.
Compound `N#C[C@@]1(C(=O)N2CC3(CC3)[C@H](NS(=O)(=O)CF)[C@@H]2Cc2cccc(-c3cccc(F)c3)c2F)CCO1` [compound 45, N-((6S,7S)-5-((R)-2-cyanooxetane-2-carbonyl)-6-((2,3′-difluoro-[1,1′-biphenyl]-3-yl)methyl)-5-azaspiro[2.4]heptan-7-yl)-1-fluoromethanesulfonamide] showed a concentration for a half-maximal effect (EC50) of 1 to 10 nM.
Regarding `O=C(C(O)CF)N1CC2(CC2)[C@H](NS(=O)(=O)C(F)F)[C@@H]1Cc1cccc(-c2cccc(F)c2)c1F` (mixture of isomers) [compound 29, N-((6S,7S)-6-((2,3′-difluoro-[1,1′-biphenyl]-3-yl)methyl)-5-((RS)-3-fluoro-2-hydroxypropanoyl)-5-azaspiro[2.4]heptan-7-yl)-1,1-difluoromethanesulfonamide], the EC50 fell in the range of 0.0631 to 1 nM.
Consider `N#C[C@]1(C(=O)N2CC3(CC3)[C@H](NS(=O)(=O)CF)[C@@H]2Cc2cc(F)cc(-c3ccccc3)c2F)CCO1` [compound 85, N-((6S,7S)-5-((S)-2-cyanooxetane-2-carbonyl)-6-((2,5-difluoro-[1,1′-biphenyl]-3-yl)methyl)-5-azaspiro[2.4]heptan-7-yl)-1-fluoromethanesulfonamide], for which the EC50 fell in the range of 1 to 10 nM.
Compound `C[C@@H](F)S(=O)(=O)N[C@@H]1[C@H](Cc2cc(F)cc(-c3cc(F)cc(F)c3)c2F)N(C(=O)[C@H]2CCO2)CC12CC2` [compound 57, (S)-1-fluoro-N-((6S,7S)-5-((R)-oxetane-2-carbonyl)-6-((2,3′,5,5′-tetrafluoro-[1,1′-biphenyl]-3-yl)methyl)-5-azaspiro[2.4]heptan-7-yl)ethane-1-sulfonamide] came in with a concentration giving a half-maximal response (EC50) of 1 to 10 nM.
For `COC1CN(C(=O)N2CC3(CC3)[C@H](NS(=O)(=O)C(F)F)[C@@H]2Cc2cccc(-c3cc(F)cc(F)c3)c2F)C1` [compound 52, 1,1-difluoro-N-((6S,7S)-5-(3-methoxyazetidine-1-carbonyl)-6-((2,3′,5′-trifluoro-[1,1′-biphenyl]-3-yl)methyl)-5-azaspiro[2.4]heptan-7-yl)methanesulfonamide], the half-maximal effective concentration (EC50) is 1 to 10 nM.
Regarding `O=C([C@H]1CCCO1)N1CC2(CC2)[C@H](NS(=O)(=O)CF)[C@@H]1Cc1cccc(-c2cc(F)cc(F)c2)c1F` [compound 42, 1-fluoro-N-((6S,7S)-5-((R)-tetrahydrofuran-2-carbonyl)-6-((2,3′,5′-trifluoro-[1,1′-biphenyl]-3-yl)methyl)-5-azaspiro[2.4]heptan-7-yl)methanesulfonamide], the EC50 lay within 1 to 10 nM.
In turn, `CC(C)NC(=O)N1CC2(CC2)[C@H](NS(=O)(=O)CF)[C@@H]1Cc1cccc(-c2ccccc2)c1F` [compound 82, (6S,7S)-6-((2-fluoro-[1,1′-biphenyl]-3-yl)methyl)-7-((fluoromethyl)sulfonamido)-N-isopropyl-5-azaspiro[2.4] heptane-5-carboxamide] came in with a half-maximal effective concentration (EC50) of 1 to 10 nM.
With `CC(C)(F)CNC(=O)N1CC2(CC2)[C@H](NS(=O)(=O)CF)[C@@H]1Cc1cccc(-c2cccc(F)c2)c1F` [compound 73, (6S,7S)-6-((2,3′-difluoro-[1,1′-biphenyl]-3-yl)methyl)-N-(2-fluoro-2-methylpropyl)-7-((fluoromethyl)sulfonamido)-5-azaspiro[2.4]heptane-5-carboxamide], the EC50 was in the range of 1 to 10 nM.
The figure for `C[C@@H](F)C(=O)N1CC2(CC2)[C@H](NS(=O)(=O)CF)[C@@H]1Cc1cc(F)cc(-c2cccc(F)c2)c1F` [compound 21, 1-fluoro-N-((6S,7S)-5-((R)-2-fluoropropanoyl)-6-((2,3′,5-trifluoro-[1,1′-biphenyl]-3-yl)methyl)-5-azaspiro[2.4]heptan-7-yl)methanesulfonamide] is 0.0631 to 1 nM.
